# Measurements reported in ChEMBL document CHEMBL5523675, “Novel mitochondrial and DNA damaging fluorescent Calix[4]arenes bearing isatin groups as aromatase inhibitors: Design, synthesis and anticancer activity” (Bioorg Med Chem, 2024).
# Legend:
# MCF7 [1] = assay: Antiproliferative activity against human MCF7 cells assessed as inhibition of cell growth measured after 48 hrs by Alamar blue dye based assay; assay type: functional; settings: MCF7, 48 h
# [2] = Genotoxicity in human MDA-MB-231 cells assessed as appearance of damaged DNA structures measured after 48 hrs by ethidium bromide staining based fluorescent microscopic analysis; assay type: toxicity, cell-based; settings: mda-mb-231, 48 h
# MCF7 [3] = assay: Induction of apoptosis in human MCF7 cells assessed as late apoptotic cells incubated for 48 hrs by annexin V and 7-AAD staining based flow cytometry analysis (reference value: 0.68%); assay type: functional
# PNT1A [4] = assay: Induction of apoptosis in human PNT1A cells assessed as late apoptotic cells incubated for 48 hrs by annexin V and 7-AAD staining based flow cytometry analysis (reference value: 0.04%); assay type: functional
# MDA-MB-231 [5] = assay: Induction of apoptosis in human MDA-MB-231 cells assessed as late apoptotic cells incubated for 48 hrs by annexin V and 7-AAD staining based flow cytometry analysis (reference value: 0.12%); assay type: functional
# MDA-MB-231 [6] = assay: Antiproliferative activity against human MDA-MB-231 cells assessed as inhibition of cell growth measured after 48 hrs by Alamar blue dye based assay; assay type: functional; settings: MDA-MB-231, 48 h
# MCF7 [7] = assay: Induction of apoptosis in human MCF7 cells assessed as necrosis incubated for 48 hrs by annexin V and 7-AAD staining based flow cytometry analysis (reference value: 0.03%); assay type: functional
# [8] = Genotoxicity in human MDA-MB-231 cells assessed as abnormal tail nuclei measured after 48 hrs by ethidium bromide staining based fluorescent microscopic analysis; assay type: toxicity, cell-based; settings: mda-mb-231, 48 h
# PNT1A [9] = assay: Induction of apoptosis in human PNT1A cells assessed as necrosis incubated for 48 hrs by annexin V and 7-AAD staining based flow cytometry analysis (reference value: 0.22%); assay type: functional
# MDA-MB-231 [10] = assay: Induction of apoptosis in human MDA-MB-231 cells assessed as early apoptotic cells incubated for 48 hrs by annexin V and 7-AAD staining based flow cytometry analysis (reference value: 0.18%); assay type: functional
# PNT1A [11] = assay: Induction of apoptosis in human PNT1A cells assessed as live cells incubated for 48 hrs by annexin V and 7-AAD staining based flow cytometry analysis (reference value: 99.69%); assay type: functional
# MDA-MB-231 [12] = assay: Induction of apoptosis in human MDA-MB-231 cells assessed as necrosis incubated for 48 hrs by annexin V and 7-AAD staining based flow cytometry analysis (reference value: 0.09%); assay type: functional
# PNT1A [13] = assay: Induction of apoptosis in human PNT1A cells assessed as early apoptotic cells incubated for 48 hrs by annexin V and 7-AAD staining based flow cytometry analysis (reference value: 0.04%); assay type: functional
# MCF7 [14] = assay: Induction of apoptosis in human MCF7 cells assessed as early apoptotic cells incubated for 48 hrs by annexin V and 7-AAD staining based flow cytometry analysis (reference value: 0.14%); assay type: functional
# [15] = Genotoxicity in human MCF7 cells assessed as appearance of damaged DNA structures measured after 48 hrs by ethidium bromide staining based fluorescent microscopic analysis; assay type: toxicity, cell-based; settings: mcf7, 48 h
# MDA-MB-231 [16] = assay: Induction of apoptosis in human MDA-MB-231 cells assessed as live cells incubated for 48 hrs by annexin V and 7-AAD staining based flow cytometry analysis (reference value: 99.61%); assay type: functional
# MCF7 [17] = assay: Induction of apoptosis in human MCF7 cells assessed as live cells incubated for 48 hrs by annexin V and 7-AAD staining based flow cytometry analysis (reference value: 99.14%); assay type: functional
# [18] = Antiproliferative activity against human PNT1A cells assessed as inhibition of cell growth measured after 48 hrs by Alamar blue dye based assay; assay type: toxicity
# Aromatase = biological target: T1, Aromatase (Homo sapiens, UniProt P11511); assay: Inhibition of human Aromatase by fluorimetric assay
# T1 sequence (P11511 whole entry): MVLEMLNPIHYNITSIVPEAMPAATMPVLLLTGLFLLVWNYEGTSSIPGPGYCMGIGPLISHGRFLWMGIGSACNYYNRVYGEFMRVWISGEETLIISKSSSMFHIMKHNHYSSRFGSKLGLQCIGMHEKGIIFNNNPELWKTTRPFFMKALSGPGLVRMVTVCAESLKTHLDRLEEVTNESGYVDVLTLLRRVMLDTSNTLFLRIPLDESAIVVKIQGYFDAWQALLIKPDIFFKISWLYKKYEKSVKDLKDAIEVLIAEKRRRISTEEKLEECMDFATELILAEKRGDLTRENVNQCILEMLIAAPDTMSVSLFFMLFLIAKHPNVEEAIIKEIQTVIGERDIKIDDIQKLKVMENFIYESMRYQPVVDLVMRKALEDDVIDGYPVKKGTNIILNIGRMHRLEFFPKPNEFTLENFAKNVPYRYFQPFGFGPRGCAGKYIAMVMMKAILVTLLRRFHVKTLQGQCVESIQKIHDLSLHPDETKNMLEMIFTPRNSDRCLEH
# [19] = Genotoxicity in human MCF7 cells assessed as abnormal tail nuclei measured after 48 hrs by ethidium bromide staining based fluorescent microscopic analysis; assay type: toxicity, cell-based; settings: mcf7, 48 h
# [20] = Drug localization in mitochondria of human MDA-MB-231 cells at 2 uM incubated for 45 mins by MitoTracker dye based confocal laser scanning microscopic analysis; assay type: ADME; settings: mda-mb-231, 0.75 h
Compound,IC50 (MCF7 [1]) [µM],Activity [2],Activity (MCF7 [3]) [%],Activity (PNT1A [4]) [%],Activity (MDA-MB-231 [5]) [%],IC50 (MDA-MB-231 [6]) [µM],Activity (MCF7 [7]) [%],Activity [8],Activity (PNT1A [9]) [%],Activity (MDA-MB-231 [10]) [%],Live cells (PNT1A [11]) [%],Activity (MDA-MB-231 [12]) [%],Activity (PNT1A [13]) [%],Activity (MCF7 [14]) [%],Activity [15],Activity (MDA-MB-231 [16]) [%],Activity (MCF7 [17]) [%],IC50 at 48 h [18] [µM],IC50 (Aromatase) [µM],Activity [19],other results
C[n+]1ccc(/C=C/c2cc3c(O)c(c2)Cc2cc(C(C)(C)C)cc(c2OCCCn2cc(CN4C(=O)C(=O)c5cc(I)ccc54)nn2)Cc2cc(/C=C/c4cc[n+](C)cc4)cc(c2O)Cc2cc(C(C)(C)C)cc(c2OCCCn2cc(CN4C(=O)C(=O)c5cc(I)ccc54)nn2)C3)cc1.[I-].[I-],15.1,Toxic,36.55,1.09,1.57,3.98,1.33,Toxic,0.02,0.21,96.68,13.61,2.22,12.97,Toxic,84.61,49.15,72.5,1.03,Toxic,
C[n+]1ccc(/C=C/c2cc3c(O)c(c2)Cc2cc(C(C)(C)C)cc(c2OCCCn2cc(CN4C(=O)C(=O)c5cc(F)ccc54)nn2)Cc2cc(/C=C/c4cc[n+](C)cc4)cc(c2O)Cc2cc(C(C)(C)C)cc(c2OCCCn2cc(CN4C(=O)C(=O)c5cc(F)ccc54)nn2)C3)cc1.[I-].[I-],11.6,Toxic,45.79,0.28,2.03,5.59,10.11,Toxic,0.1,0.11,93.92,33.01,5.69,2.18,Toxic,64.85,41.92,62.9,0.711,Toxic,
O=c1[nH]cc(F)c(=O)[nH]1 [FLUOROURACIL],35.3,,,,,6.81,,,,,,,,,,,,192,,,
Cc1ccc2c(c1)C(=O)C(=O)N2Cc1cn(CCCOc2c3cc(C(C)(C)C)cc2Cc2cc(/C=C/c4cc[n+](C)cc4)cc(c2O)Cc2cc(C(C)(C)C)cc(c2OCCCn2cc(CN4C(=O)C(=O)c5cc(C)ccc54)nn2)Cc2cc(/C=C/c4cc[n+](C)cc4)cc(c2O)C3)nn1.[I-].[I-],10.2,Toxic,15.04,0.35,1.31,5.23,2.96,Toxic,0.06,0.02,95.6,14.78,3.99,10.49,Toxic,83.89,71.51,74.9,0.218,Toxic,
C[n+]1ccc(/C=C/c2cc3c(O)c(c2)Cc2cc(C(C)(C)C)cc(c2OCCCn2cc(CN4C(=O)C(=O)c5ccccc54)nn2)Cc2cc(/C=C/c4cc[n+](C)cc4)cc(c2O)Cc2cc(C(C)(C)C)cc(c2OCCCn2cc(CN4C(=O)C(=O)c5ccccc54)nn2)C3)cc1.[I-].[I-],19.2,Toxic,37.69,0.08,1.66,9.24,3.27,Toxic,0.63,0.26,99.14,6.66,0.16,8.09,Toxic,91.42,50.95,77.6,0.518,Toxic,
C[n+]1ccc(/C=C/c2cc3c(O)c(c2)Cc2cc(C(C)(C)C)cc(c2OCCCn2cc(CBr)nn2)Cc2cc(/C=C/c4cc[n+](C)cc4)cc(c2O)Cc2cc(C(C)(C)C)cc(c2OCCCn2cc(CBr)nn2)C3)cc1,28.4,,,,,22.8,,,,,,,,,,,,86.4,,,
C[n+]1ccc(/C=C/c2cc3c(O)c(c2)Cc2cc(C(C)(C)C)cc(c2OCCCn2cc(CN4C(=O)C(=O)c5cc(Cl)ccc54)nn2)Cc2cc(/C=C/c4cc[n+](C)cc4)cc(c2O)Cc2cc(C(C)(C)C)cc(c2OCCCn2cc(CN4C(=O)C(=O)c5cc(Cl)ccc54)nn2)C3)cc1.[I-].[I-],8.83,Toxic,36.24,0.25,2.74,3.32,5.75,Toxic,0.11,0.23,97.91,13.63,1.74,4.56,Toxic,83.4,53.45,32.9,0.104,Toxic,Drug uptake [20]: Active
C[n+]1ccc(/C=C/c2cc3c(O)c(c2)Cc2cc(C(C)(C)C)cc(c2OCCCn2cc(CN4C(=O)C(=O)c5cc(Br)ccc54)nn2)Cc2cc(/C=C/c4cc[n+](C)cc4)cc(c2O)Cc2cc(C(C)(C)C)cc(c2OCCCn2cc(CN4C(=O)C(=O)c5cc(Br)ccc54)nn2)C3)cc1.[I-].[I-],10.1,Toxic,24.62,1.13,1.6,3.78,0.3,Toxic,0.14,0.4,96.14,10.87,2.6,34.66,Toxic,87.12,40.42,57.2,0.315,Toxic,
